# Patent US20080287490A1, “Bis-pyridino containing compounds for the use in the treatment of CNS pathologies” (UNIVERSITY OF KENTUCKY RESEARCH FOUNDATION, priority 2005, published 2008)
# Read-outs that look alike come from different tables or passages of the source.
# Experiments:
# [1] = biological target: T1, Rat Striatal Nicotinic Acetylcholine Receptors ([^3H]nicotine binding sites) (Rattus norvegicus, UniProt P09483+P12390); assay: biochemical; settings: rat striatal membranes, 3 nM [^3H]-nicotine; read-out: Ki, specific binding of [^3H]-nicotine
# T1 construct: Striata from two rats were dissected, pooled, and homogenized; from tissue; host or cells: rat striatum membranes
# T1 sequence (P09483 31-630): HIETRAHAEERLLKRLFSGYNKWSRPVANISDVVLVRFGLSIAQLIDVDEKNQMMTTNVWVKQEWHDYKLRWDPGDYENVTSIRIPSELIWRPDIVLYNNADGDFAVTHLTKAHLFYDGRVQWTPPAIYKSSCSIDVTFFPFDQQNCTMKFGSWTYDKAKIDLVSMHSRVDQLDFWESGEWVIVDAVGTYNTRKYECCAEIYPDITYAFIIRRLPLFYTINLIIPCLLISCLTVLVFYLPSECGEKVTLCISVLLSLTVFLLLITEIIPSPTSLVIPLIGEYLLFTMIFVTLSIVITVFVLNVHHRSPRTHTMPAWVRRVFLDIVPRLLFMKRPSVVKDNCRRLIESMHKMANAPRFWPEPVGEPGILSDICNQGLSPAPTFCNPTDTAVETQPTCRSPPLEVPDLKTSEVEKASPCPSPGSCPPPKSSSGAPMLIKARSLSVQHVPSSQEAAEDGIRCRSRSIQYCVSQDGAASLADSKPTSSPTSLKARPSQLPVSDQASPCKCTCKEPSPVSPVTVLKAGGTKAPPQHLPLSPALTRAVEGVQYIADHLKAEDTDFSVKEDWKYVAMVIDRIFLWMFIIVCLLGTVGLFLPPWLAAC
# T1 sequence (P12390 25-500): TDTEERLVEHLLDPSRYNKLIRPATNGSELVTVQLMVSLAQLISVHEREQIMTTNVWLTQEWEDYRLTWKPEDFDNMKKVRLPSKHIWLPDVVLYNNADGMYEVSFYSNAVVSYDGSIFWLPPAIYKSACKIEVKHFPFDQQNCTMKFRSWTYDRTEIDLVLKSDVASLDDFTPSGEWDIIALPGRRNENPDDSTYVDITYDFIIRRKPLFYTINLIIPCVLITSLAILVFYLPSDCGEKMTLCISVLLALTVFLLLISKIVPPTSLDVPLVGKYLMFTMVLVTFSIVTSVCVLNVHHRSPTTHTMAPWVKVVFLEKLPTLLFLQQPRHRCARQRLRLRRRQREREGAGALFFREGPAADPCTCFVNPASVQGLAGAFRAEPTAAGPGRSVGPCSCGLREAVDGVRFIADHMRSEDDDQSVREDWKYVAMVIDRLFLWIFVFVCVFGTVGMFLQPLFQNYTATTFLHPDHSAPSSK
# Description: Striata from two rats were dissected, pooled, and homogenized with a Tekmar polytron in 10 volumes of ice-cold modified Krebs-HEPES buffer (20 mM HEPES, 118 mM NaCl, 4.8 mM KCl, 2.5 mM CaCl2, 1.2 mM MgSO4, adjusted to pH 7.5). The homogenates were incubated at 37° C. for five minutes and centrifuged at 15,000 g for 20 minutes. The pellet was resuspended in ten volumes of ice-cold MilliQ water, incubated for five minutes at 37° C., and centrifuged at 15,000 g for 20 minutes The second pellet was then resuspended in ten volumes of fresh ice-cold 10% Krebs-HEPES buffer, incubated at 37° C., and centrifuged at 15,000 g for 20 minutes. The latter sequence of resuspension, incubation, and centrifugation was repeated. The pellet was frozen under fresh 10% Krebs-HEPES buffer and stored at −40° C. until assay. Upon assay, the pellet was resuspended in the Krebs-HEPES buffer, incubated at 37° C. for five minutes, and centrifuged at 15,000 g for 20 minutes. The final pellet was resuspended in 3.6 ml ice-cold MilliQ water which provided for approximately 200 μg protein per 100 μl aliquot. Competition assays were performed in duplicate in a final volume of 200 μl Krebs-HEPES buffer containing […] Tris buffer (pH 7.5 at 4° C.). […] After a 90 minute incubation at 4° C., reactions were terminated by dilution of the samples with 3 ml of ice-cold Krebs-HEPES buffer followed immediately by filtration through Whatman GF/B glass fiber filters (presoaked in 0.5% polyethyleneimine) using a Brandel Cell Harvester. Filters were rinsed three times with 3 ml of ice-cold Krebs-HEPES buffer, transferred to scintillation vials, and 5 ml scintillation cocktail (Research Products International Corp., Mt. Prospect, Ill.) added. […] Binding parameters were determined using the weighted, least squares non-linear regression.
# α4β2* nAChRs = α4β2* nAChRs (Rattus norvegicus, UniProt P09483+P12390)
# α4β2* nAChRs, sequence (P09483 31-630): as the sequence (P09483 31-630) above
# α4β2* nAChRs, sequence (P12390 25-500): as the sequence (P12390 25-500) above
# Description: (§1) Whole brain, excluding cortex and cerebellum, was homogenized in 20 ml of ice-cold buffer, containing (in mM): 2 HEPES, 11.8 NaCl, 0.48 KCl, 0.25 CaCl2 and 0.12 MgSO4, pH 7.5. Homogenate was centrifuged (25,000 g, 15 minutes, 4° C.). Pellets were resuspended in 20 ml of buffer and incubated at 37° C., for ten minutes, cooled to 4° C. and centrifuged (25,000 g, 15 minutes, 4° C.). Pellets were resuspended and centrifuged using the same conditions. Final pellets were stored in assay buffer, containing (in mM): 20 HEPES, 118 NaCl, 4.8 KCl, 2.5 CaCl2, and 1.2 MgSO4) pH 7.5 at −70° C. Upon use, final pellets were resuspended in ˜20 ml assay buffer. […] Control was in the absence of analog. […] Incubations proceeded for 60 minutes at room temperature using 96-well plates and were terminated by harvesting on Unifilter-96 GF/B filter plates presoaked in 0.5% polyethylenimine, using a Packard FilterMate harvester.
# (§2) After washing five times with 350 μl ice-cold assay buffer, filter plates were dried (60 minutes, 49° C.), bottom-sealed, and filled with Packard's MicroScint 20 cocktail (40 μl/well). After 60 minutes, filter plates were top-sealed, and radioactivity determined using a Packard TopCount. Protein concentrations were determined using bovine serum albumin as the standard.
# (§3) Whole brain was homogenized in 20 ml of ice-cold buffer (in mM: 2 HEPES, 11.8 NaCl, 0.48 KCl, 0.25 CaCl2, and 0.12 MgSO4, pH 7.5). Homogenates were centrifuged (25,000 g, 15 minutes, 4° C.). Pellets were resuspended in 20 ml of buffer and incubated at 37° C., for 10 minutes, cooled to 4° C. and centrifuged (25,000 g, 15 minutes, 4° C.). Pellets were resuspended and centrifuged again using the same conditions. Final pellets were stored at −70° C. in assay buffer (in mM: 20 HEPES, 118 NaCl, 4.8 KCl, 2.5 CaCl2, and 1.2 MgSO4, pH 7.5). Upon use, final pellets were resuspended in ˜20 ml assay buffer. […] Control was in the absence of analog. […] Incubation proceeded for 60 minutes at room temperature using 96-well plates and was terminated by harvesting on Unifilter-96 GF/B filter plates, presoaked in 0.5% polyethylenimine, using a Packard FiterMate harvester. After washing 5× with 350 μl ice-cold assay buffer, filter plates were dried (60 minutes, 49° C.), bottom-sealed, and filled with Packard's MicroScint 20 cocktail (40 μl/well). After 60 minutes, filter plates were top-sealed, and radioactivity determined. Protein concentration was determined using BSA as the standard.
# [2] = biological target: blood-brain barrier choline transporter; type: in vivo, rat; settings: read-out: apparent Ki, inhibition of [^3H]-choline uptake into brain
# Description: Blood-brain barrier choline transporter affinity assays. Quaternary ammonium analogs were evaluated for their ability to inhibit [^3H]-choline uptake into brain providing an indication of the ability of these analogs to interact with the choline transporter. These assays were conducted using the in situ rat brain perfusion method of Takasato, et al., Am. J. Physiol. 1984, 247, 484, as modified by Allen and Smith, J. Neurochem., 2001, 76, 1032. […] Ki values were compared by ANOVA followed by Bonferoni's multiple comparisons test to determine if an analog inhibits [^3H]-choline uptake.
# Analog affinity for, and transport by, the blood-brain barrier choline transporter.
# α7* nAChRs = α7* nAChRs (Rattus norvegicus, UniProt Q05941); assay: biochemical
# α7* nAChRs, sequence (Q05941 23-502): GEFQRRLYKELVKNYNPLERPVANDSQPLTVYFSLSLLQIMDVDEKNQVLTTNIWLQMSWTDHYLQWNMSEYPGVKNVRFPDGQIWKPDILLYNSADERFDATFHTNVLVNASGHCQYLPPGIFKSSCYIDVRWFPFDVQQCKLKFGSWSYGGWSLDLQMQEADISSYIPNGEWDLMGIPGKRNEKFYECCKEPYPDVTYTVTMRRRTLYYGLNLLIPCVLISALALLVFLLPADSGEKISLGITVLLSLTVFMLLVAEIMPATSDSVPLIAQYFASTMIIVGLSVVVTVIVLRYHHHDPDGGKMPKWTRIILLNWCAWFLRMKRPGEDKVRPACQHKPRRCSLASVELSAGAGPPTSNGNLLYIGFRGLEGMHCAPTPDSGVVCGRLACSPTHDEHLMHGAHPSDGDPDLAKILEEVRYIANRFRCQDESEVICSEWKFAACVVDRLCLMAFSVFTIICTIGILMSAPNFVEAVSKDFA
# Description: as §1, §2, §3
# [3] = test system: nAChR subtypes mediating nicotine-evoked [^3H]-dopamine overflow
# Description: [^3H]-Dopamine overflow from superfused striatal slices. […] Striatal coronal slices (500 μm, 4-6 mg) were obtained and incubated for 30 minutes in Krebs' buffer (in mM: 118 NaCl, 4.7 KCl, 1.2 MgCl2, 1 NaH2PO4, 1.3 CaCl2, 11.1 glucose, 25 NaHCO3, 0.11 L-ascorbic acid and 0.004 disodium EDTA, pH 7.4, saturated with 95% O2/5% CO2) in a metabolic shaker at 34° C. Slices were incubated with 0.1 μM (final concentration) of [^3H]-dopamine during the latter 30 minutes of the 60-minute incubation period. Each slice was transferred to a glass superfusion chamber maintained at 34° C. and superfused (1 ml/min) with Krebs' buffer containing nomifensine (10 μM) and pargyline (10 μM) to inhibit [^3H]-dopamine reuptake after release into the extracellular space, ensuring that [^3H]-overflow primarily represented [^3H]-dopamine. Sample collection (5-minute; 5 mL) began after 60 minutes of superfusion. […] At the end of the experiment, each slice was solubilized, and the [^3H]-content of the tissue determined. Release during each minute was normalized for total tissue [^3H]-content. Analog-induced intrinsic activity and inhibitory activity were determined using slices from the same rat (repeated-measures design).
# The amount of [^3H] in each sample was calculated by dividing the total [^3H] collected in each sample by the total in the tissue at the time of sample collection (defined as fractional release). […] Data were analyzed by weighted, least squares regression analysis of the sigmoidal concentration-effect curves to obtain EC50 and IC50 values.
# Striatal slices (500 μm, 4-6 mg) were incubated for 30 minutes in Krebs' buffer (in mM: 118 NaCl, 4.7 KCl, 1.2 MgCl2, 1 NaH2PO4, 1.3 CaCl2, 11.1 glucose, 25 NaHCO3, 0.11 L-ascorbic acid and 0.004 disodium EDTA, pH 7.4, saturated with 95% O2/5% CO2) in a metabolic shaker at 34° C. Slices were incubated with 0.1 μM (final concentration) [^3H]DA during the latter 30 minutes of the 60-minute incubation period. Each slice was transferred to a glass superfusion chamber maintained at 34° C. and superfused (1 ml/min) with Krebs' buffer containing nomifensine (10 μM) and pargyline (10 μM) to inhibit [^3H]DA reuptake and metabolism, respectively, after release into the extracellular space, ensuring that [^3H]overflow primarily represents [^3H]DA. Sample collection (5-minute; 5 ml) began after 60 minutes of superfusion. […] Thus, the ability of these analogs to elicit intrinsic activity (evoke [^3H]DA overflow) was determined. At the end of the experiment, each slice was solubilized and [^3H]content of the tissue determined. Release during each minute was normalized for total [^3H]content of the slice. Analog-induced intrinsic activity and inhibitory activity were determined using slices from the same rat (repeated-measures design).
# Fractional release was calculated by dividing the total tritium collected in each sample by the total tritium in the tissue at the time of sample collection. […] Typically, data were analyzed by weighted, least squares regression analysis of sigmoidal concentration-effect curves to obtain EC50 and IC50 values.
# [4] = test system: nAChR mediating nicotine-evoked [^3H]DA release (α3β2* receptor subtype); type: cell-based, rat; settings: rat striatal slices, nicotine 10 μM; read-out: IC50, S-(−)-nicotine-evoked [^3H]DA release
# Description: Slices were rinsed with 15 mL of fresh buffer and incubated for an additional 30 minutes in fresh buffer containing 0.1 μM [^3H]DA (6 slices/3 ml). Subsequently, slices were rinsed with 15 ml of fresh buffer and transferred to a glass superfusion chamber.
# Radioactivity in the superfusate and tissue samples was determined by liquid scintillation spectroscopy. […] Basal [^3H]outflow was calculated from the average of the tritium collected in the two five minute samples just before addition of the bis-alkyl pyridino analog. […] [^3H]Overflow was calculated by subtracting the [^3H]outflow during an equivalent period of prestimulation from the values in samples collected during and after drug exposure. Inasmuch as the radiolabelled compounds were not separated and identified, the tritium collected in superfusate is referred to as either [^3H]outflow or [^3H]overflow, rather than as [^3H]DA.
# [5] = biological target: T2, α7-type neuronal nicotinic acetylcholine receptors (Rattus norvegicus, UniProt Q05941); assay: biochemical; settings: rat brain membranes, 2.5 nM [^3H]-MLA; read-out: Ki, [^3H]MLA binding
# T2 construct: Rat brain was dissected into the whole brain tissue without cortex, striatum and cerebellum; from tissue; host or cells: rat brain (without cortex, striatum, cerebellum) membranes
# T2 sequence (Q05941 23-502): as above
smiles,measurement,setting,value
CCCCCCCCCC[n+]1cccc(C2CCCN2C)c1 (stereo not drawn) [NDNI],Ki,[1],110 nM
same,Ki,"α4β2* nAChRs; [^3H]Nicotine Binding Ki, Table 4, mean (95% confidence interval)",90 nM
same,Ki,α4β2* nAChRs; affinity for [^3H]-nicotine binding sites,~90 nM
same,mode of interaction with the high affinity [^3H]-nicotine binding site (Scatchard analyses),α4β2* nAChRs; no change in Bmax,competitive manner
same,Ki,[2],27 µM
same,Ki,α7* nAChRs,> 100 µM
same,inhibitory activity at the nAChR subtype mediating nicotine-evoked dopamine release,[3],does not exhibit inhibitory activity
same,IC50,[4],> 100 µM
same,Ki,[5],> 100 µM
